Experimental findings from ChEMBL document CHEMBL4130388, “Recent advances of pyrazole-containing derivatives as anti-tubercular agents” (Eur J Med Chem, 2017) are described below.

The test system of experiment [1] is Mycobacterium tuberculosis. As to the kind of experiment: Antitubercular activity against Mycobacterium tuberculosis H37Rv. It counts as functional.
For experiment [2], the system named is Mycobacterium tuberculosis. As to the kind of experiment: Antitubercular activity against Mycobacterium tuberculosis spec.210. It is filed as functional.
The subject of experiment [3] is Mycobacterium tuberculosis. The experiment in a line: Antitubercular activity against Mycobacterium tuberculosis spec.192. It counts as functional.
Experiment [4] relates to Mycobacterium tuberculosis. The experiment in a line: Antitubercular activity against Mycobacterium tuberculosis H37Rv by Lowensteine-Jensen method. It is filed as functional.
Experiment [5] concerns Mycobacterium tuberculosis. As to the kind of experiment: Growth inhibition of Mycobacterium tuberculosis H37Rv at 62.5 ug/ml by broth dilution method relative to control. It counts as functional. Conditions: read-out: GI. In general terms: In broth dilution the organism is exposed to a series of concentrations in liquid medium.
Experiment [6] concerns Mycobacterium tuberculosis. As to the kind of experiment: Antitubercular activity against Mycobacterium tuberculosis. It counts as functional.
Experiment [7] concerns Mycobacterium tuberculosis. As to the kind of experiment: Antitubercular activity against Mycobacterium tuberculosis H37Rv by broth dilution method. It counts as functional.
The subject of experiment [8] is Mycobacterium tuberculosis. As to the kind of experiment: Antitubercular activity against Mycobacterium tuberculosis H37Rv ATCC 27294 at 6.25 ug/ml by BACTEC radiometric method relative to control. It counts as functional.
A further experiment concerns HepG2. As to the kind of experiment: Cytotoxicity against human HepG2 cells. It counts as cell-based.

Converted amounts (≈) assume the structure as drawn.

Take `CCOC(=O)C1=C(C)NC(C)=C(C(=O)OCC)C1c1cn(-c2ccccc2)nc1-c1ccc(F)cc1`: inhibition of growth in [1] (MIC) required 0.02 mg/L.

For `O=C(Nc1ccccc1)N1CCc2c(cnn2Cc2cn(-c3ccc([N+](=O)[O-])cc3)nn2)C1`, the values for the MIC in [1], in experiment [2] and in [3] were 24.7 to 200 µM, 24.7 to 200 µM (≈ 11 to 88.9 µg/mL) and 24.7 to 200 µM (≈ 11 to 88.9 µg/mL), respectively.

As to `Cc1ccc(C2C(Cl)C(=O)N2C(=O)NCCCn2ncc3ccc([N+](=O)[O-])cc32)cc1` (stereo not drawn), in [4], the MIC (usually the smallest concentration in the dilution series that meets the test's criterion for growth inhibition) lay in the range of 6.25 to 50 mg/L (≈ 14.1 to 113 µM).

For the molecule `Cc1nn(-c2ccccc2)c2c1C(c1cccc([N+](=O)[O-])c1)c1c(N)nc(=O)[nH]c1O2` (stereo not drawn), in [5], the inhibition of growth at 62.5 µg/mL was 98%.

`O=C(Nc1ccccc1)N1CCc2c(cnn2Cc2cn(-c3ccccc3)nn2)C1`: the values for the MIC in [1], in experiment [2] and in [3] were 24.7 to 200 µM, 24.7 to 200 µM (≈ 9.87 to 79.9 µg/mL) and 24.7 to 200 µM (≈ 9.87 to 79.9 µg/mL), respectively.

Consider `Nc1nc(-c2ccc(O)cc2)cc(-c2cn(-c3ccccc3)nc2-c2ccc(F)cc2)n1`, for which, in experiment [6], it took 0.88 mg/L (≈ 2.08 µM) to reach the 90% level (IC90).

For `O=C(Nc1ccccc1)N1CCc2c(cnn2Cc2cn(-c3ccc(I)cc3)nn2)C1`, the MIC in experiment [1] was in the range of 24.7 to 200 µM; in experiment [2], 24.7 to 200 µM (≈ 13 to 105 µg/mL); in [3], 24.7 to 200 µM (≈ 13 to 105 µg/mL).

As to `O=C(NCCCn1ncc2ccc([N+](=O)[O-])cc21)N1C(=O)C(Cl)C1c1cccc(Br)c1` (stereo not drawn), the MIC in experiment [4] lay within 6.25 to 50 mg/L (≈ 12.3 to 98.7 µM).

For `O=C(NCCCn1ncc2ccc([N+](=O)[O-])cc21)N1C(=O)C(Cl)C1c1ccccc1Br` (stereo not drawn), the MIC in experiment [4] fell in the range of 6.25 to 50 mg/L (≈ 12.3 to 98.7 µM).

For the molecule `Cc1ccccc1C1C(Cl)C(=O)N1C(=O)NCCCn1ncc2ccc([N+](=O)[O-])cc21` (stereo not drawn), in experiment [4], the minimum inhibitory concentration (MIC) was 6.25 to 50 mg/L (≈ 14.1 to 113 µM).

Consider `O=C(Nc1ccccc1)N1CCc2c(cnn2Cc2cn(-c3ccc(F)c(F)c3)nn2)C1`, for which the minimal inhibitory concentration (MIC) in [1] lay in the range of 24.7 to 200 µM; in [2], 24.7 to 200 µM (≈ 10.8 to 87.1 µg/mL); in experiment [3] it was 24.7 to 200 µM (≈ 10.8 to 87.1 µg/mL).

As for `O=C(NCCCn1ncc2ccc([N+](=O)[O-])cc21)N1C(=O)C(Cl)C1c1cccc(O)c1` (stereo not drawn), in [4], the minimal inhibitory concentration (MIC) was 6.25 to 50 mg/L (≈ 14.1 to 113 µM).

In the case of `NNC(=O)c1ccncc1` [ISONIAZID], the minimal inhibitory concentration (MIC) was 0.2 to 4 mg/L (≈ 1.46 to 29.2 µM) in experiment [4], 0.03 mg/L in [1] and 0.03 mg/L (≈ 0.219 µM) in experiment [7]. The MIC99 – broadly, an inhibitory concentration at the 99% level, which refers to growth in some studies and to a panel of isolates in others – in experiment [8] was determined as 1.86 µM (≈ 0.255 µg/mL).

For `O=C(NCCCn1ncc2ccc([N+](=O)[O-])cc21)N1C(=O)C(Cl)C1c1ccccc1O` (stereo not drawn), the MIC in [4] fell in the range of 6.25 to 50 mg/L (≈ 14.1 to 113 µM).

`O=C(Nc1ccccc1)N1CCc2c(cnn2Cc2cn(-c3cc(Cl)cc(Cl)c3)nn2)C1`: the MIC in experiment [1] was 24.7 to 200 µM; in experiment [2], 24.7 to 200 µM (≈ 11.6 to 93.7 µg/mL); in [3], 24.7 to 200 µM (≈ 11.6 to 93.7 µg/mL).

The molecule `O=C(NCCCn1ncc2ccc([N+](=O)[O-])cc21)N1C(=O)C(Cl)C1c1ccccc1` (stereo not drawn) registered an MIC in [4] of 6.25 to 50 mg/L (≈ 14.6 to 117 µM).

For the molecule `O=C(Nc1ccccc1)N1CCc2c(cnn2Cc2cn(-c3ccccc3F)nn2)C1`, the results for the MIC in experiment [1], in [2] and in experiment [3] were 24.7 to 200 µM, 24.7 to 200 µM (≈ 10.3 to 83.5 µg/mL) and 24.7 to 200 µM (≈ 10.3 to 83.5 µg/mL), respectively.

Molecule `O=C(NCCCn1ncc2ccc([N+](=O)[O-])cc21)N1C(=O)C(Cl)C1c1ccccc1[N+](=O)[O-]` (stereo not drawn) had an MIC in experiment [4] of 6.25 to 50 mg/L (≈ 13.2 to 106 µM).

Turning to `O=C(Nc1ccccc1)N1CCc2c(cnn2Cc2cn(-c3ccc(F)c(Cl)c3)nn2)C1`, the MIC in experiment [1] lay within 24.7 to 200 µM; in experiment [2], 24.7 to 200 µM (≈ 11.2 to 90.4 µg/mL); in [3], 24.7 to 200 µM (≈ 11.2 to 90.4 µg/mL).

In the case of `COc1ccc(C2C(Cl)C(=O)N2C(=O)NCCCn2ncc3ccc([N+](=O)[O-])cc32)cc1` (stereo not drawn), in experiment [4], the MIC is 6.25 to 50 mg/L (≈ 13.7 to 109 µM).

Turning to `O=C(NCCCn1ncc2ccc([N+](=O)[O-])cc21)N1C(=O)C(Cl)C1c1ccc(O)cc1` (stereo not drawn), the MIC in experiment [4] was 6.25 to 50 mg/L (≈ 14.1 to 113 µM).

With `COc1ccc(-n2cc(Cn3ncc4c3CCN(C(=O)Nc3ccccc3)C4)nn2)cc1OC`, the MIC in experiment [1] lay within 24.7 to 200 µM; in [2], 24.7 to 200 µM (≈ 11.4 to 91.9 µg/mL); in experiment [3], 24.7 to 200 µM (≈ 11.4 to 91.9 µg/mL).

For the molecule `O=C(Nc1ccccc1)N1CCc2c(cnn2Cc2cn(-c3ccc(OC(F)(F)F)cc3)nn2)C1`, the values for the MIC in experiment [1], in [2] and in experiment [3] were 24.7 to 200 µM, 24.7 to 200 µM (≈ 12 to 96.7 µg/mL) and 24.7 to 200 µM (≈ 12 to 96.7 µg/mL), respectively.

With `COC(=O)C1=C(C)NC(C)=C(C(=O)OC)C1c1cn(-c2ccccc2)nc1-c1ccc([N+](=O)[O-])cc1`, the MIC in experiment [1] stood at 0.02 mg/L.

`CC1=NN(C(=O)c2cc(-c3ccc(Cl)cc3)n[nH]2)C(=O)/C1=N\Nc1ccc(F)cc1` came in with an MIC in experiment [1] of 0.35 mg/L. Besides, in the experiment with HepG2, the IC50 (in general, the concentration that gives 50% inhibition) was greater than 500 µM.

In the case of `O=C(Nc1ccccc1)N1CCc2c(cnn2Cc2cn(-c3ccc(Cl)cc3)nn2)C1`, the MIC in [1] was 24.7 to 200 µM; in [2] it was 24.7 to 200 µM (≈ 10.7 to 86.8 µg/mL); in experiment [3] it was 24.7 to 200 µM (≈ 10.7 to 86.8 µg/mL).

As for `O=C(Nc1ccccc1)N1CCc2c(cnn2Cc2cn(-c3ccc(Br)cc3)nn2)C1`, the MIC was in the range of 24.7 to 200 µM in experiment [1], 24.7 to 200 µM (≈ 11.8 to 95.7 µg/mL) in [2] and 24.7 to 200 µM (≈ 11.8 to 95.7 µg/mL) in experiment [3].

In [7], `CCOC(=O)C1=C(C)NC(=O)NC1c1cn(-c2ccccc2)nc1-c1ccc(F)cc1` (stereo not drawn) registered an MIC of 0.02 mg/L (≈ 0.0476 µM).

Turning to `O=C(Nc1ccccc1)N1CCc2c(cnn2Cc2cn(-c3ccc(F)cc3)nn2)C1`, the minimum inhibitory concentration (MIC) is 24.7 to 200 µM in experiment [1], 24.7 to 200 µM (≈ 10.3 to 83.5 µg/mL) in [2] and 24.7 to 200 µM (≈ 10.3 to 83.5 µg/mL) in experiment [3].

Regarding `Cc1nn(-c2ccccc2)c2c1C(c1cccc([N+](=O)[O-])c1)c1c(nc[nH]c1=O)O2` (stereo not drawn), the inhibition of growth at 62.5 µg/mL in experiment [5] was determined as 98%.
